Assay results taken from ChEMBL document CHEMBL3734659, “Identification of tris-(phenylalkyl)amines as new selective h5-HT2Breceptor antagonists” (Medchemcomm, 2015).
Calls of active or inactive are those of the source. No cut-off for these calls is given here.

Assays:
[1] = molecular target: 5-hydroxytryptamine receptor 7 (Homo sapiens, UniProt P34969); assay: Displacement of [3H]LSD from human recombinant 5-HT7A receptor stably expressed in HEKT cell membrane after 90 mins by scintillation counting method; type: cell membranes
Sequence of 5-hydroxytryptamine receptor 7 (P34969 whole entry): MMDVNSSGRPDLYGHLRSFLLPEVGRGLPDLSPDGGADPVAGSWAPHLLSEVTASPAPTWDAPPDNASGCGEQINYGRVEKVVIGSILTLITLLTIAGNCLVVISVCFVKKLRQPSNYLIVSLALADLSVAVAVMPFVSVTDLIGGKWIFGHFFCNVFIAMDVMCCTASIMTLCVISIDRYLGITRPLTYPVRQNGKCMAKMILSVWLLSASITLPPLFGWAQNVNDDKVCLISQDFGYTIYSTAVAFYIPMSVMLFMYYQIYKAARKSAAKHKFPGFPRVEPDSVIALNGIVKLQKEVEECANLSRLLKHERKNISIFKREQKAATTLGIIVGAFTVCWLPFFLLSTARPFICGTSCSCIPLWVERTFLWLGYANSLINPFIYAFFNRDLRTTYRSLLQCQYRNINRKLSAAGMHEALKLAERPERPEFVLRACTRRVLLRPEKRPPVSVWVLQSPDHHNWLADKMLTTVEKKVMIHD

[2] = molecular target: Sodium-dependent dopamine transporter (Homo sapiens, UniProt Q01959); assay: Displacement of [3H]WIN35428 from human dopamine transporter stably expressed in HEK293 cells after 30 mins by neurotransmitter transporter uptake assay; type: cell-based
Sequence of Sodium-dependent dopamine transporter (Q01959 whole entry): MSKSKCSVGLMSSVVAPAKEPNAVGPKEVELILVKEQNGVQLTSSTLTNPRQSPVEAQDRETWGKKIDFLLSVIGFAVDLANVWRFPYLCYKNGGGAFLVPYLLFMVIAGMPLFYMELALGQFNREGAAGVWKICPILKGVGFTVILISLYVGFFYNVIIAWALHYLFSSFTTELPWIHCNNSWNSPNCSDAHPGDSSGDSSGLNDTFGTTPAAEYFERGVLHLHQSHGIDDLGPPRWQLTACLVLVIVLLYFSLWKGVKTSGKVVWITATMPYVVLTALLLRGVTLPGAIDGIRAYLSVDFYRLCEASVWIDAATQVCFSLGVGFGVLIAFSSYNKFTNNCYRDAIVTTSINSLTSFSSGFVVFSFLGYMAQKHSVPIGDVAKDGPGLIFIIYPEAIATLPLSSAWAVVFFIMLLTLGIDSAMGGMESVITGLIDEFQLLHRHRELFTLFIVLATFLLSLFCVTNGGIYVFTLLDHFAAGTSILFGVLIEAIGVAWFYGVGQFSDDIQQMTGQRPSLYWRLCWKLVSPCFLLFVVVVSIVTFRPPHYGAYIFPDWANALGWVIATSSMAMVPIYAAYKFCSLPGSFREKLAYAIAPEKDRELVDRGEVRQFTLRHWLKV

[3] = molecular target: 5-hydroxytryptamine receptor 2A (Homo sapiens, UniProt P28223); assay: Agonist activity at human recombinant 5-HT2A receptor expressed in Flp-In HEK cells preincubated for 10 mins by FLIPR based calcium mobilization assay; type: functional, cell-based; details: HEK293
Sequence of 5-hydroxytryptamine receptor 2A (P28223 whole entry): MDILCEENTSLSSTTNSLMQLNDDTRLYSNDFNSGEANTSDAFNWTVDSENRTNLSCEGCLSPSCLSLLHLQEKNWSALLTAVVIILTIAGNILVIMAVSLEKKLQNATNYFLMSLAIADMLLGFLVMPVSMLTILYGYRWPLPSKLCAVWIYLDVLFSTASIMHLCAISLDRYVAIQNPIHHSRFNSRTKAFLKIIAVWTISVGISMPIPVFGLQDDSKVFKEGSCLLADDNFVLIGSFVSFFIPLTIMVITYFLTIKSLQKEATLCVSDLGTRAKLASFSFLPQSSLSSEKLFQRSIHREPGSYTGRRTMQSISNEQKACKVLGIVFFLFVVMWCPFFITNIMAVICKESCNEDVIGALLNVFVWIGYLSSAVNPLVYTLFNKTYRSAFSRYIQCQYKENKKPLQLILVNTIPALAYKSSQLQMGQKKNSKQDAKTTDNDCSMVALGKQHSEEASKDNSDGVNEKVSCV

For `COc1ccc(CCN(CCCc2ccccc2)CCc2ccc3c(c2)OCO3)cc1OC`, the Ki [1] was 0.7 µM, the Ki [2] was 0.498 µM and the Activity [3] was “inactive”.
